This is an account of results in ChEMBL document CHEMBL3991601, “The target landscape of clinical kinase drugs” (Science, 2017).

The target in test [1] is Serine/threonine-protein kinase N2 (Homo sapiens, UniProt Q16513).
The target of test [2] is Cyclin-dependent kinase 5 (Homo sapiens, UniProt Q00535).
Test [3] has as its target T1, Activin receptor type-1B (Homo sapiens, UniProt P36896).
T1 sequence (P36896 whole entry): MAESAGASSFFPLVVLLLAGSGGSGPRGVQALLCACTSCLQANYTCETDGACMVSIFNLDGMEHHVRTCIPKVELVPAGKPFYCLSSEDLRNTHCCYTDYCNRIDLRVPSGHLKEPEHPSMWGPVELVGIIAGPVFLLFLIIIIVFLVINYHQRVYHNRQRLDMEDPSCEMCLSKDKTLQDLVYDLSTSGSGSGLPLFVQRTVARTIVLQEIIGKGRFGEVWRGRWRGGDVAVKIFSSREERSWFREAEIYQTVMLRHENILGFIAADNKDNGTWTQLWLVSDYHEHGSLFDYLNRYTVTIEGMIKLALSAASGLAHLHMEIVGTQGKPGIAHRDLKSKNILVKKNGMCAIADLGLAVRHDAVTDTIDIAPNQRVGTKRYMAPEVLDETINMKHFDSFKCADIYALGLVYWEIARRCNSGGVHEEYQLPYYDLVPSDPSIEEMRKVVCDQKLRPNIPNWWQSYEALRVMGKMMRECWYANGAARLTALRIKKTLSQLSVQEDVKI

For test [4], the target named is Mitogen-activated protein kinase 10 (Homo sapiens, UniProt P53779).
The target in test [5] is Serine/threonine-protein kinase/endoribonuclease IRE2 (Homo sapiens, UniProt Q76MJ5).
The target of test [6] is T2, Inhibitor of nuclear factor kappa-B kinase subunit epsilon (Homo sapiens, UniProt Q14164).
T2 sequence (Q14164 whole entry): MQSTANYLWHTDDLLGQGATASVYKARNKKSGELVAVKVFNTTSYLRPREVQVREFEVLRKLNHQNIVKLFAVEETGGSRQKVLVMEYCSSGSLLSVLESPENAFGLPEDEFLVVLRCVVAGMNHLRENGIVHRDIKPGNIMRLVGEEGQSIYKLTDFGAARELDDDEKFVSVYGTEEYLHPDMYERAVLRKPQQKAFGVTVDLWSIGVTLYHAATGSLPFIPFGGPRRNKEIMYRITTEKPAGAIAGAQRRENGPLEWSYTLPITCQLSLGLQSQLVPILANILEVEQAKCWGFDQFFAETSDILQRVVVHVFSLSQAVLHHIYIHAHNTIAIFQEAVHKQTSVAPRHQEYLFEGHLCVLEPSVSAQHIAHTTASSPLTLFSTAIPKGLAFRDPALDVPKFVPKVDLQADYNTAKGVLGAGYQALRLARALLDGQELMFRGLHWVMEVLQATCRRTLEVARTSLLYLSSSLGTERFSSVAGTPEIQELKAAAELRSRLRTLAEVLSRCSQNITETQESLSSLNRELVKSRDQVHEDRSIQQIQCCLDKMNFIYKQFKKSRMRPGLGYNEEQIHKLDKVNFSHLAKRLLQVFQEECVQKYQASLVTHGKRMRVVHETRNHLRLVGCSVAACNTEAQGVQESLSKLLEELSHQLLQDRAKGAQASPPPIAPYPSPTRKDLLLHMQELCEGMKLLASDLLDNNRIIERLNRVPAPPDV

Test [7] concerns the target T3, Interleukin-1 receptor-associated kinase 4 (Homo sapiens, UniProt Q9NWZ3).
T3 sequence (Q9NWZ3 whole entry): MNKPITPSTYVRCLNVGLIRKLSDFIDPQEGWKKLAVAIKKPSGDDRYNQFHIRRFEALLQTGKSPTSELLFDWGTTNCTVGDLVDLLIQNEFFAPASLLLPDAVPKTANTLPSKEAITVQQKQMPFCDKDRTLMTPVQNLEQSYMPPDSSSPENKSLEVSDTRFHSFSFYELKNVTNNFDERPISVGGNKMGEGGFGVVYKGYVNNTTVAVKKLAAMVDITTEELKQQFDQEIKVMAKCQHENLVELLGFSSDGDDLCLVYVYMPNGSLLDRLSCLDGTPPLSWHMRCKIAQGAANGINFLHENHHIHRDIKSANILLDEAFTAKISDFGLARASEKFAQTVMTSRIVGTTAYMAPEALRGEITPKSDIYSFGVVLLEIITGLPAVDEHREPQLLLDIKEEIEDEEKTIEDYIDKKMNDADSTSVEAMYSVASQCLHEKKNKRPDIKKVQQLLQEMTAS

The target in test [8] is Mitogen-activated protein kinase 9 (Homo sapiens, UniProt P45984).
Test [9] deals with Myosin-14 (Homo sapiens, UniProt Q7Z406).

Activity calls are given as the source filed them. Cut-off read from the data, not from the text of the source, for most assays here: actives have a measured Kd and inactives only a lower limit.
Note: in the data inactive means no Kd found up to 30 µM.

Sequence of Serine/threonine-protein kinase N2 (Q16513 whole entry): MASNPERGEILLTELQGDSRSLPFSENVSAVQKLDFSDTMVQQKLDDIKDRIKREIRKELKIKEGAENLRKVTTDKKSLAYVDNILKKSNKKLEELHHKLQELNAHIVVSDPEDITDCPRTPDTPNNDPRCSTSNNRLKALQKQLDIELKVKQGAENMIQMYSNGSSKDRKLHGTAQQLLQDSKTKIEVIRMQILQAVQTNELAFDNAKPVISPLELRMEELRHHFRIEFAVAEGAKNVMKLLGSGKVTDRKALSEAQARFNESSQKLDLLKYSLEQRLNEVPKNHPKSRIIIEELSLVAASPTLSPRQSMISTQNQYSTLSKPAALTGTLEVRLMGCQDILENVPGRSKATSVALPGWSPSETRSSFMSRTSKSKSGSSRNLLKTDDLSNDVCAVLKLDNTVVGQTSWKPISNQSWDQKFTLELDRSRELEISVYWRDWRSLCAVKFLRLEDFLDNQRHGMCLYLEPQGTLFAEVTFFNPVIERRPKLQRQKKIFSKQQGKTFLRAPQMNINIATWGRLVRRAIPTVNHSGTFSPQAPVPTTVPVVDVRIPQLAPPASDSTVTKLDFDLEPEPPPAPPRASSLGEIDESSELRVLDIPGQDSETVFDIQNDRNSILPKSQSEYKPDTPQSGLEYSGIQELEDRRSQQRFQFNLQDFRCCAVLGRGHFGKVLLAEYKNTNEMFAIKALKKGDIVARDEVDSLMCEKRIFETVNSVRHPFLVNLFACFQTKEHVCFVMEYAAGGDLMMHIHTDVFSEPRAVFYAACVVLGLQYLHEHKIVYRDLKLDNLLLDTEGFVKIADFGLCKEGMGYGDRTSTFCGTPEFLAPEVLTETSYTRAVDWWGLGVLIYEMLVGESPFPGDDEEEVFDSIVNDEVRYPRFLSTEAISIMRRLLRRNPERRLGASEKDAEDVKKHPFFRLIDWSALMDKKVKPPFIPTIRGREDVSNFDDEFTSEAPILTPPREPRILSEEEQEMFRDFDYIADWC
Sequence of Serine/threonine-protein kinase/endoribonuclease IRE2 (Q76MJ5 whole entry): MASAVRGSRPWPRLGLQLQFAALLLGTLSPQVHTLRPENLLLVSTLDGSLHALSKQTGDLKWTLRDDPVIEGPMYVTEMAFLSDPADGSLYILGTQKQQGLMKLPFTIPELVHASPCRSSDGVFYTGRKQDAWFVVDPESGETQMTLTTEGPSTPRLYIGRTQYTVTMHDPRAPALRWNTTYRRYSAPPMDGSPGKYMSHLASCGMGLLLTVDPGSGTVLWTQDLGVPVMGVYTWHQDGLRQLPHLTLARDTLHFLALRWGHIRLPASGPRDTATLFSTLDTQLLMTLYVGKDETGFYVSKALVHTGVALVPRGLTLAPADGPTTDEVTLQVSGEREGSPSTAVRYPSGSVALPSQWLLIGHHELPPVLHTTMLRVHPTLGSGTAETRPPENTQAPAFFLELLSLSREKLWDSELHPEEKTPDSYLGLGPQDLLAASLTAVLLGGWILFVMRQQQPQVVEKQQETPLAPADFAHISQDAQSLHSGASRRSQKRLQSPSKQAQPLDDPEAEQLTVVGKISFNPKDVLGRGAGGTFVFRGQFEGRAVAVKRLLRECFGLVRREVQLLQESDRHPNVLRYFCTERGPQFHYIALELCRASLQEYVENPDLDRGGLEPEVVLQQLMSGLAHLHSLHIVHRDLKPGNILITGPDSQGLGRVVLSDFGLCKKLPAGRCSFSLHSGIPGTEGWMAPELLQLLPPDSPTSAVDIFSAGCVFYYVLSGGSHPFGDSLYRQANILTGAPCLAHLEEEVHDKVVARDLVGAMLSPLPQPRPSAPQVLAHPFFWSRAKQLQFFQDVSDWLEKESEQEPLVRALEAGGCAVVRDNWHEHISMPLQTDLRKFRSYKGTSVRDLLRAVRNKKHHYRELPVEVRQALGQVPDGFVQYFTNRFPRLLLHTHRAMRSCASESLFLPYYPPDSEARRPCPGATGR
Sequence of Myosin-14 (Q7Z406 whole entry): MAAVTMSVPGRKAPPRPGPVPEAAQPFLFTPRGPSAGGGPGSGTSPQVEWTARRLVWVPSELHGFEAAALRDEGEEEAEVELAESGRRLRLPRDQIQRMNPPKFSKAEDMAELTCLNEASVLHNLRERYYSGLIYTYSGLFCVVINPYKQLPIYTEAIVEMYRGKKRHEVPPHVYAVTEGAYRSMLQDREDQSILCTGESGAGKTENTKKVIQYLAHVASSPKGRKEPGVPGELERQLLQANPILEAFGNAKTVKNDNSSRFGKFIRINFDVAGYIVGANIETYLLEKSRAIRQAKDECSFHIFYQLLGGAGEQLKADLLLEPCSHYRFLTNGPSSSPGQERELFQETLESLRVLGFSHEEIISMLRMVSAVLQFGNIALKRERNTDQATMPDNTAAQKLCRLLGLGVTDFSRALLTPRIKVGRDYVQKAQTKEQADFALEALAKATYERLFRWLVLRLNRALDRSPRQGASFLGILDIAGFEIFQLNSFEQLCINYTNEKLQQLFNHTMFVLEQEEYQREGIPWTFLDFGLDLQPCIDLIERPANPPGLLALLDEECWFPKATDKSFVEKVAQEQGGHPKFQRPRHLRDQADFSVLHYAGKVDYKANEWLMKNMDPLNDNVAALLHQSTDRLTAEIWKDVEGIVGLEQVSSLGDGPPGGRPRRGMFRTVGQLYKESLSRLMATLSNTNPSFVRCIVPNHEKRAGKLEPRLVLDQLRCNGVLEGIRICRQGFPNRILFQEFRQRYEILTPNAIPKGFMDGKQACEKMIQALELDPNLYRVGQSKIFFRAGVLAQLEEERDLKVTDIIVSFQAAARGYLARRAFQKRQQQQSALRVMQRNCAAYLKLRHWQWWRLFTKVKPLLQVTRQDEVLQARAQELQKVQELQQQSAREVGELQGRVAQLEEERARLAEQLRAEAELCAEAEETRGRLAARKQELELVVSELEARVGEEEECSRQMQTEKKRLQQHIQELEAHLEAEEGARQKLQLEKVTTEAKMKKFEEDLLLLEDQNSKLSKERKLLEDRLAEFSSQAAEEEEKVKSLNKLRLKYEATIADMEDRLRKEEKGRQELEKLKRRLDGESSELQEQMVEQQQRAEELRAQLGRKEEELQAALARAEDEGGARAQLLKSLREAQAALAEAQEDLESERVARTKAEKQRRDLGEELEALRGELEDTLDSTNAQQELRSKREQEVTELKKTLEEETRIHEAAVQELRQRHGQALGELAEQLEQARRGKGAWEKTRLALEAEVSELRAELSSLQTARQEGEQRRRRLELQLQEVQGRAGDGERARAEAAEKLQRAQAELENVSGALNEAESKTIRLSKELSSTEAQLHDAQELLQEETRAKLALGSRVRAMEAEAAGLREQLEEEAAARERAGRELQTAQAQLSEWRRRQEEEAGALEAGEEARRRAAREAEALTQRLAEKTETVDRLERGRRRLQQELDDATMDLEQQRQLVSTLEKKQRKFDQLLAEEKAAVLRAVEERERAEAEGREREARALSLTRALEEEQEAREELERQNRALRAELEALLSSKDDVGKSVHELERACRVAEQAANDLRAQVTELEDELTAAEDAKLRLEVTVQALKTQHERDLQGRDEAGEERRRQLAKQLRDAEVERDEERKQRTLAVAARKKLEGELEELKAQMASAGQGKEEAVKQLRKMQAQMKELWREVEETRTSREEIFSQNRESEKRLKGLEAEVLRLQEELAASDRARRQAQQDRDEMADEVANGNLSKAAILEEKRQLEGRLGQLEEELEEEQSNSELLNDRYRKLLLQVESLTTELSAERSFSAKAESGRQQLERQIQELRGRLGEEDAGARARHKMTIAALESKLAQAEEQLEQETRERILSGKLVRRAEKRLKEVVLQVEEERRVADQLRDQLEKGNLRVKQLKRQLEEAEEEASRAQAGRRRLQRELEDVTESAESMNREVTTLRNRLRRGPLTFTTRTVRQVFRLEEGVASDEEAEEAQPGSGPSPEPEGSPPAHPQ
Sequence of Mitogen-activated protein kinase 10 (P53779 whole entry): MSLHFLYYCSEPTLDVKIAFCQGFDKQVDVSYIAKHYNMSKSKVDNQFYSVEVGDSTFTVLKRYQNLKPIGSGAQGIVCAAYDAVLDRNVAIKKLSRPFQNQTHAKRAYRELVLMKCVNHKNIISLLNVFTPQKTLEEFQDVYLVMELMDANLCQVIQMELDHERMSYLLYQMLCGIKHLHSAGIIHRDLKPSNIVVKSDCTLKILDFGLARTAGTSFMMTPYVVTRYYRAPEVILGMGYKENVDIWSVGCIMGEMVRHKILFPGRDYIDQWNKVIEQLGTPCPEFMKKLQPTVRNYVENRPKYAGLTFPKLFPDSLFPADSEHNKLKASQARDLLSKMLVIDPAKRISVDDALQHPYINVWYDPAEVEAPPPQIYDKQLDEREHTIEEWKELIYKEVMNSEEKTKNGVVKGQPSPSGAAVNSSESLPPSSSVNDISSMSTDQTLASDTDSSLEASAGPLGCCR
Sequence of Cyclin-dependent kinase 5 (Q00535 whole entry): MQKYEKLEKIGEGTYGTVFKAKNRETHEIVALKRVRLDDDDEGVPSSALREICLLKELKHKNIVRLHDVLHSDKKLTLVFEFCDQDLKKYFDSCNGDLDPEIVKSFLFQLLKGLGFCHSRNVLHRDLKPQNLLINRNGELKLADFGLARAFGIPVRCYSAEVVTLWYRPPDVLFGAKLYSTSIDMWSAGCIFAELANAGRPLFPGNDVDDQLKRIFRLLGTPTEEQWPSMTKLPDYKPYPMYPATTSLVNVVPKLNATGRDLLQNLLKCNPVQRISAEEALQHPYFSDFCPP
Sequence of Mitogen-activated protein kinase 9 (P45984 whole entry): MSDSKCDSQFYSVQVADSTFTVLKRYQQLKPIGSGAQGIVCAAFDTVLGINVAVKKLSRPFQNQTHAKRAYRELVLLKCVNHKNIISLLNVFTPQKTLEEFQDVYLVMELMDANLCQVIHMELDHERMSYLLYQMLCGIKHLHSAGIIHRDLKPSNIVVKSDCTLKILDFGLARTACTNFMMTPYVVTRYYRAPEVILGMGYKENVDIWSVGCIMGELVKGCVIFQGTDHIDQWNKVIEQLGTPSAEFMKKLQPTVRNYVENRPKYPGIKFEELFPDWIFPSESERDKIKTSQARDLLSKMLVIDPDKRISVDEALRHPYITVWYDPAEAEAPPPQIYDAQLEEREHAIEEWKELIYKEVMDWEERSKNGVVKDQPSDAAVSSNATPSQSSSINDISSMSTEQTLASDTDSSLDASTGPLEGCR

The term Kd denotes the equilibrium constant for the complex coming apart. `C=CCN(/C=C1/C(=O)O[C@H](COC)[C@@]2(C)C1=C(O)C(=O)C1=C2[C@H](OC(C)=O)C[C@]2(C)C(=O)CC[C@@H]12)CC=C` [SONOLISIB]: the Kd in test [1], in test [2], in test [3], in test [4], in test [5] and in test [6] was > 30 µM (inactive) in each case. The Kd in test [7] and in test [8] was > 30 µM (inactive) in each case.

As to `CN1CCN(c2nc(C3=C(c4c[nH]c5ccccc45)C(=O)NC3=O)c3ccccc3n2)CC1` [SOTRASTAURIN], the Kd in test [2], in test [3], in [4], in test [9], in test [5] and in test [6] was > 30 µM (inactive) each time. Further, the Kd in [7] and in [8] was > 30 µM (inactive) each time.

On to `CNC(=O)c1ccc(Nc2ncc(C(F)(F)F)c(NCc3nccnc3N(C)S(C)(=O)=O)n2)cc1` [DEFACTINIB], for which the Kd in test [1] was > 30 µM (inactive); in [2], 1.41 µM (active); in test [3], > 30 µM (inactive); in test [4], > 30 µM (inactive); in test [9] it was > 30 µM (inactive); in test [5], > 30 µM (inactive). For the same molecule, the Kd in [6], in test [7] and in [8] was > 30 µM (inactive) in each case.

Consider `Cc1cc(C(=O)Nc2cc(Oc3ccc4nc(NC(=O)C5CC5)cn4n3)ccc2C)n(C)n1` [TAK-593], for which the Kd in [1], in test [2], in test [3], in test [4], in test [9] and in test [5] was > 30 µM (inactive) throughout. Moreover, the Kd in test [6], in [7] and in [8] was > 30 µM (inactive) throughout.

For the molecule `CCOc1ccn(-c2ccc(F)cc2)c(=O)c1C(=O)Nc1ccc(Oc2ccnc(N)c2Cl)c(F)c1` [BMS-777607], the Kd in test [1], in test [2], in [3], in [4], in [5] and in test [7] was > 30 µM (inactive) in each case. The Kd in test [8] is > 30 µM (inactive).

`COc1cc(F)c(F)c(Nc2ccc(I)cc2F)c1NS(=O)(=O)C1(C[C@H](O)CO)CC1` [REFAMETINIB]: the Kd in test [1] is > 30 µM (inactive); in test [2], > 30 µM (inactive); in test [3] it was > 30 µM (inactive); in test [4], 0.036 µM (active); in test [9], > 30 µM (inactive); in test [5] it was > 30 µM (inactive). For the same molecule, the Kd in test [6], in [7] and in test [8] was > 30 µM (inactive) throughout.

Consider `O=C(O)c1ccc2c(c1)nc(Nc1cccc(Cl)c1)c1ccncc12` [SILMITASERTIB], for which the Kd in [1] is > 30 µM (inactive); in [2] it was 0.514 µM (active); in test [3] it was > 30 µM (inactive); in test [4], > 30 µM (inactive); in [9], > 30 µM (inactive); in test [5], > 30 µM (inactive). The Kd in test [6], in test [7] and in test [8] was > 30 µM (inactive) throughout.

With `CCc1nc(C(N)=O)c(Nc2ccc(N3CCC(N4CCN(C)CC4)CC3)c(OC)c2)nc1NC1CCOCC1` [GILTERITINIB], the Kd in [1] is > 30 µM (inactive); in test [2], > 30 µM (inactive); in test [3] it was > 30 µM (inactive); in test [4] it was 0.512 µM (active); in test [9], > 30 µM (inactive); in test [5], > 30 µM (inactive). Further, the Kd in [6] is 1.47 µM (active); in [8], 0.43 µM (active).
